Like-named read-outs stand apart in the source and are kept apart here.
Experiment: In vivo oral pharmacokinetic study in SD rats
Set-up: species or system Sprague-Dawley rats
Conditions: for MRT last / half-life / k el / Cmax / Tmax / AUC(0-t): Sprague-Dawley, rat, blood, po; for k el: read-out: Ke (converted); for AUC(0-t): read-out: AUC0–24h
Procedure: SD rats (five rats/group) were individually housed in stainless-steel metabolic cages, which allowed for the separation and collection of urine and feces. The rats were fasted overnight with ad libitum access to water prior to the day of the experiment. After a rat was anesthetized with isoflurane gas, the prepared suspension of test compound in an oral suspension vehicle was administered to the animals via oral gavage at a dose of 20 mg/kg for each compound in the mixture of MG and PGG or at 143 mg/kg MSKE, which is equivalent to approximate doses of 20 mg/kg PGG and 0.13 mg/kg MG. Subsequently, the rats’ tails were snipped near the tip to collect blood samples (approximately 50 µL), which were collected in heparinized tubes at 0, 0.50, 1, 2, 4, 6, 8 and 24 h. To investigate the excretion of phenolic compounds, urine and feces were collected between 0–24 h post-administration into tubes containing penicillin G (200 mg) and dry tubes, respectively, which were pre-weighted before use. After completing the pharmacokinetic study, the urine volume and dry feces weights were recorded, and all samples were stored at −80 °C until analysis.
The blood and urine samples were prepared according to our previously reported methods. The fecal samples were prepared by adding 30 mL methanol to the sample, and the mixture was then vortexed and sonicated for 30 min to obtain the fecal lysates, which were extracted via the same method.
The pharmacokinetic parameters of MG and PGG were calculated based on the non-compartmental method using WinNonlin 3.3 (Pharsight Corporation, Mountain View, CA, USA). The total mass of analytes was calculated according to the following equations (Equations (3)–(6)): The mass recovery (%) = (total mass in blood + total mass in urine + total mass in feces)/initial mass of analyte (3) Total mass in blood = C24h in blood × rat blood volume (70 mL/kg of body weight) (4) Total mass in urine = C0–24h in urine × volume of urine (0–24 h) (5) Total mass in feces = C0–24h in fecal lysate × volume of fecal lysate (30 mL) (6) where C24h in the blood is the concentration of analyte found in the blood sample at 24 h, and C0–24h in the urine and C0–24h in the fecal lysate are the concentrations of the analyte found in the urine and fecal samples, respectively, between 0 and 24 h.
A Waters UPLC system coupled with an ESI triple quadrupole mass spectrometer (QTRAP5500, AB Sciex, Foster City, CA, USA) was used to analyze MG and PGG in biological samples. The LC–MS/MS conditions were previously published. The UPLC conditions were Kinetex C18 column at 50 mm × 2.1 mm I.D. and 5 µm particle size (Phenomenex Inc.); mobile phase A at 0.1% formic acid in deionized water; mobile phase B at 100% acetonitrile; gradient at 0.0–0.5 min (0% B), 0.5–1.0 min (0%–30% B), 1.0–2.0 min (30%–90% B), 2.0–3.0 min (90% B), 3.0–3.5 min (90%–0% B) and 3.5–5.0 min (0% B); flow rate at 0.5 mL/min; column temperature at 40 °C; sample temperature at 20 °C; and injection volume at 10 µL. The mass spectrometer employed an MRM method in the negative ion mode. The instrument-dependent parameters for obtaining the mass spectra were set as follows: ionspray voltage at −4.5 kV; ion source temperature at 550 °C; gas 1 at 60 psi; gas 2 at 60 psi; and curtain gas at 20 psi. The unit mass resolution was set in both mass-resolving quadruples Q1 and Q3. Because of the absence of authentic standard for the glucuronide and sulfate metabolites of MG and PGG, qualification of the metabolites in the biological samples was accomplished using the compound-dependent parameters for MG and PGG.

[1] = MSKE 143 mg/kg (20 mg/kg PGG and 0.13 mg/kg MG)
[2] = mixture of MG and PGG 20 mg/kg each
[3] = mixture 20 mg/kg, p.o. vs i.p. (ref 14)
[4] = p.o., MSKE 143 mg/kg (20 mg/kg PGG and 0.13 mg/kg MG)
[5] = p.o., mixture of MG and PGG 20 mg/kg each

**Q.** With COC(=O)c1cc(O)c(O)c(O)c1 [MG, methyl gallate] as the compound, how does the MRT last [1] read?
**A.** The MRT last was 11.1 ± 0.6 h.

**Q.** And the half-life [1]?
**A.** The half-life was 65.2 ± 49.4 h.

**Q.** What about the k el [1] of the same compound?
**A.** Its k el is 4.17e-06 s⁻¹.

**Q.** What about the MRT last [2] of the same compound?
**A.** The MRT last was 8.69 ± 1.57 h.

**Q.** And the half-life [2]?
**A.** The half-life was 24.8 ± 15.7 h.

**Q.** And the k el [2]?
**A.** The k el was 1e-05 s⁻¹.

**Q.** And the Cmax [1]?
**A.** Its Cmax is 240 ± 60 nM.

**Q.** And the Tmax [1]?
**A.** The Tmax was 0.5 h.

**Q.** And the AUC(0-t) [1]?
**A.** Its AUC(0-t) is 3.57 ± 0.79 µM·h.

**Q.** And the Cmax [2]?
**A.** The Cmax was 1130 ± 1060 nM.

**Q.** And the Tmax [2]?
**A.** Its Tmax is 2.3 ± 1.64 h.

**Q.** And the AUC(0-t) [2]?
**A.** The AUC(0-t) was 6.47 ± 0.75 µM·h.

**Q.** And the “AUC0–24h, oral lower than intraperitoneal” value [3]?
**A.** Its value is roughly 17 folds.

**Q.** What about the “Cmax, oral lower than intraperitoneal” value [3] of the same compound?
**A.** Its value is roughly 31 folds.

**Q.** What about the “Tmax, oral compared with intraperitoneal (slower absorption)” value [3] of the same compound?
**A.** The value was “approximately 3 folds”.

**Q.** And the “Vd, oral higher than intraperitoneal” value [3]?
**A.** Its value is “approximately 19 folds”.

**Q.** What about the “t1/2, oral longer than intraperitoneal” value [3] of the same compound?
**A.** The value was roughly 1.4 folds.

**Q.** What about the CL [4] of the same compound?
**A.** Its CL is 35.2 ± 21 mL/min/kg.

**Q.** What about the Vd [4] of the same compound?
**A.** The Vd was 135.39 ± 21.94 L/kg.

**Q.** What about the CL [5] of the same compound?
**A.** Its CL is 5534.3 ± 1662 mL/min/kg.

**Q.** What about the “time of second maximum peak of blood concentration (double-peak profile)” value [5] of the same compound?
**A.** Its value is 4 h.

From publication PMC6332320, “Factors Influencing Oral Bioavailability of Thai Mango Seed Kernel Extract and Its Key Phenolic Principles” (Molecules, 2015)
